# Patent US11505536B2, “Dihydroorotate dehydrogenase inhibitors” (Janssen Biotech, Inc., priority 2019, dated 2022)
# What was measured:
# [1] = test system: MOLM-13 cells (human acute myeloid leukemia cells); test: MOLM-13 Cellular Assay; type: cell-based; conditions: 72 hours exposure, cell viability by CellTiter-Glo
# Experimental: The following assay is referred to herein as the “MOLM-13 Cellular Assay.” MOLM-13 cells (human acute myeloid leukemia cells) were obtained from DSMZ and were maintained in RPMI 1640+Glutamax+25 mM HEPES (Invitrogen, catalog number 72400) supplemented with 10% heat inactivated fetal bovine serum (FBS; Invitrogen, catalog number 16140). The day prior to assay set-up, cells were pelleted, resuspended in fresh media, counted, and cells were plated at 0.4×10^6 cell/mL in a T150 flask. On the day of the assay, cells were pelleted, resuspend in fresh media, counted and seeded at 5,000 cells/well in white opaque 96-well tissue culture treated microplates (Perkin Elmer, catalog number 6005680). Cells were exposed to different concentrations of test compounds at 37° C., 5% CO2 for 72 hours immediately after seeding. Cell viability was acquired on a Perkin Elmer Envision 2104 multilabel reader using the CellTiter-Glo assay (Promega) according to the manufacturer's instructions.
# human DHODH = human DHODH (Homo sapiens (Human), UniProt Q02127); test: DHODH Enzymatic Assay; type: biochemical; conditions: purified human DHODH, DCIP absorbance, end-point mode; read-out: hDHODH IC50
# Chain of human DHODH (Q02127 whole entry): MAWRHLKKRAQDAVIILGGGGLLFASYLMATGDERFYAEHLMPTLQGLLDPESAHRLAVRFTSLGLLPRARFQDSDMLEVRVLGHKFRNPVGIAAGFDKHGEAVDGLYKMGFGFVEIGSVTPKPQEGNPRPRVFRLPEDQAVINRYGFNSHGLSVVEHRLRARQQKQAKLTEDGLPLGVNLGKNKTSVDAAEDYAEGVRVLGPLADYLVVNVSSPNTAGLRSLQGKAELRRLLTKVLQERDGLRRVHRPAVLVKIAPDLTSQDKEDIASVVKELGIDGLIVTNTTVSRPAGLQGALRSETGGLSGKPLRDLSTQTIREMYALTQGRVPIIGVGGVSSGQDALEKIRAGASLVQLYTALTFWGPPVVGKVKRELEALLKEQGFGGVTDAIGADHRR
# Experimental: The following assay is referred to herein as the “DHODH Enzymatic Assay.” To detect DHODH enzyme activities, dichloroindophenol (DCIP) is added as the final electron acceptor in the assay. DCIP can accept electrons from the reduced coenzyme Q generated in the assay, or from dihydroorotate (DHO) via FMN by binding presumably to the ubiquinone pocket. DCIP solutions are blue, with an intense absorbance around 600 nm, but becomes colorless upon reduction (J. Biol. Chem. (1986) 261, 11386). The assay buffer contained […], pH 7.5, 150 mM NaCl, 0.5 mM EDTA, and 0.1% Triton X-100 in MilliQ water. Substrate consisting of 20 mM DHO, 5 mM CoQ6, and 1 mM DCIP in assay buffer, initiates the reaction. The assay is run in end-point mode by quenching the reaction with the potent DHODH inhibitor brequinar. Absorbance measurements were obtained using the BMG Phera Star plate-reading spectrophotomer. Purified human DHODH was purchased from Proteros (cat. No. PR-0044). Chemicals were purchased from Sigma-Aldrich, Teknova, and Avanti Polar Lipids. Liquid handling was performed using Labcyte Echo and Formulatrix Tempest.
Structure (SMILES),IC50 [1] [nM],"IC50 ([1]; Homo sapiens, MOLM-13, 72 h) [nM]",IC50 (human DHODH) [nM]
"CCn1c(CO)nn(-c2ccc3c(=O)n(-c4cccc(F)c4)cc(-c4ccccc4)c3c2)c1=O [Example 4, 6-(4-Ethyl-3-(hydroxymethyl)-5-oxo-4,5-dihydro-1H-1,2,4-triazol-1-yl)-2-(3-fluorophenyl)-4-phenylisoquinolin-1(2H)-one]",–,100,177
"CCn1c(CO)nn(-c2cc3c([C@@H](C)C(F)(F)F)nn(-c4ccccc4C)c(=O)c3cc2F)c1=O (single isomer, unassigned) [Example 57, (R*)-6-(4-Ethyl-3-(hydroxymethyl)-5-oxo-4,5-dihydro-1H-1,2,4-triazol-1-yl)-7-fluoro-2-(o-tolyl)-4-(1,1,1-trifluoropropan-2-yl)phthalazin-1(2H)-one]",–,1,1.15
"CCn1c(CO)nn(-c2cc3c(C(C)C)cn(-c4cc(F)ccc4C)c(=O)c3cc2F)c1=O [Example 67, 6-(4-Ethyl-3-(hydroxymethyl)-5-oxo-4,5-dihydro-1H-1,2,4-triazol-1-yl)-7-fluoro-2-(5-fluoro-2-methylphenyl)-4-isopropylisoquinolin-1(2H)-one]",–,0.9,0.605
"C=C(C)c1cn(-c2ccccc2F)c(=O)c2cc(F)c(-n3nc(CO)n(CC)c3=O)cc12 [Example 66, 6-(4-Ethyl-3-(hydroxymethyl)-5-oxo-4,5-dihydro-1H-1,2,4-triazol-1-yl)-7-fluoro-2-(2-fluorophenyl)-4-(prop-1-en-2-yl)isoquinolin-1(2H)-one]",–,0.3,< 0.169
"C=C(C)c1cn(-c2c(C)cccc2F)c(=O)c2cc(F)c(-n3nc(CO)n(CC)c3=O)cc12 [Example 73, 6-(4-Ethyl-3-(hydroxymethyl)-5-oxo-4,5-dihydro-1H-1,2,4-triazol-1-yl)-7-fluoro-2-(2-fluoro-6-methylphenyl)-4-(prop-1-en-2-yl)isoquinolin-1(2H)-one]",–,0.7,0.562
"CCn1c(CO)nn(-c2cc3c(C(C)C)cn(-c4ccccc4C)c(=O)c3cc2F)c1=O [Example 22, 6-(4-Ethyl-3-(hydroxymethyl)-5-oxo-4,5-dihydro-1H-1,2,4-triazol-1-yl)-7-fluoro-4-isopropyl-2-(o-tolyl)isoquinolin-1(2H)-one]",0.2,≤ 0.2,0.396
"CCn1c(CO)nn(-c2cc3c(C(C)C)cn(-c4cc(F)ccc4F)c(=O)c3cc2F)c1=O [Example 68, 2-(2,5-Difluorophenyl)-6-(4-ethyl-3-(hydroxymethyl)-5-oxo-4,5-dihydro-1H-1,2,4-triazol-1-yl)-7-fluoro-4-isopropylisoquinolin-1(2H)-one]",–,3,2.2
"CCn1c(CO)nn(-c2cc3c(C(C)C)cn(-c4c(C)cnc(OC)c4Cl)c(=O)c3cc2F)c1=O [Example 61, 2-(3-Chloro-2-methoxy-5-methylpyridin-4-yl)-6-(4-ethyl-3-(hydroxymethyl)-5-oxo-4,5-dihydro-1H-1,2,4-triazol-1-yl)-7-fluoro-4-isopropylisoquinolin-1(2H)-one]",–,2,0.617
"C=C(C)c1cn(-c2cccc(OC)c2Cl)c(=O)c2cc(F)c(-n3nc(CO)n(CC)c3=O)cc12 [Example 70, 2-(2-Chloro-3-methoxyphenyl)-6-(4-ethyl-3-(hydroxymethyl)-5-oxo-4,5-dihydro-1H-1,2,4-triazol-1-yl)-7-fluoro-4-(prop-1-en-2-yl)isoquinolin-1(2H)-one]",–,0.4,0.24
"CCn1c(CO)nn(-c2nc3c(C(C)C)nn(-c4ccccc4C)c(=O)c3cc2F)c1=O [Example 34, 2-(4-Ethyl-3-(hydroxymethyl)-5-oxo-4,5-dihydro-1H-1,2,4-triazol-1-yl)-3-fluoro-8-isopropyl-6-(o-tolyl)pyrido[2,3-d]pyridazin-5(6H)-one]",–,4,1.97
"CCn1c(CO)nn(-c2ccc3c(=O)n(-c4cccc(F)c4)cc(C(C)C)c3c2)c1=O [Example 2, 6-(4-Ethyl-3-(hydroxymethyl)-5-oxo-4,5-dihydro-1H-1,2,4-triazol-1-yl)-2-(3-fluorophenyl)-4-isopropylisoquinolin-1(2H)-one]",–,40,75.9

# Results, then the compound that gave them:
IC50 [1] [nM],"IC50 ([1]; Homo sapiens, MOLM-13, 72 h) [nM]",IC50 (human DHODH) [nM],Structure (SMILES)
0.2,≤ 0.2,0.528,"CCn1c(CO)nn(-c2cc3c(C(C)C)cn(-c4ccccc4C(F)F)c(=O)c3cc2F)c1=O [Example 105, 2-(2-(Difluoromethyl)phenyl)-6-(4-ethyl-3-(hydroxymethyl)-5-oxo-4,5-dihydro-1H-1,2,4-triazol-1-yl)-7-fluoro-4-isopropylisoquinolin-1(2H)-one]"
–,10,17.1,"C=C(C)c1cn(-c2ccccc2C)c(=O)c2cc(C)c(-n3nc(CO)n(CC)c3=O)cc12 [Example 79, 6-(4-Ethyl-3-(hydroxymethyl)-5-oxo-4,5-dihydro-1H-1,2,4-triazol-1-yl)-7-methyl-4-(prop-1-en-2-yl)-2-(o-tolyl)isoquinolin-1(2H)-one]"
–,> 100,80.4,"CCn1c(CO)nn(-c2cc3c(C(C)C)cn(-c4cccnc4C)c(=O)c3cc2F)c1=O [Example 138, 6-(4-Ethyl-3-(hydroxymethyl)-5-oxo-4,5-dihydro-1H-1,2,4-triazol-1-yl)-7-fluoro-4-isopropyl-2-(2-methylpyridin-3-yl)isoquinolin-1(2H)-one]"
–,> 100,43.5,"CCn1c(CO)nn(-c2cc3c(C(C)C)cn(-c4ncncc4C)c(=O)c3cc2F)c1=O [Example 104, 6-(4-Ethyl-3-(hydroxymethyl)-5-oxo-4,5-dihydro-1H-1,2,4-triazol-1-yl)-7-fluoro-4-isopropyl-2-(5-methylpyrimidin-4-yl)isoquinolin-1(2H)-one]"
–,0.4,1.19,"CCn1c(CO)nn(-c2cc3c([C@H](C)C(F)(F)F)cn(-c4ccccc4C)c(=O)c3cc2F)c1=O [Example 101, (S)-6-(4-Ethyl-3-(hydroxymethyl)-5-oxo-4,5-dihydro-1H-1,2,4-triazol-1-yl)-7-fluoro-2-(o-tolyl)-4-(1,1,1-trifluoropropan-2-yl)isoquinolin-1(2H)-one]"
–,0.3,0.273,"CCn1c(CO)nn(-c2cc3c(C(C)C)cn(-c4c(F)ccc(OC)c4Cl)c(=O)c3cc2F)c1=O [Example 80, 2-(2-Chloro-6-fluoro-3-methoxyphenyl)-6-(4-ethyl-3-(hydroxymethyl)-5-oxo-4,5-dihydro-1H-1,2,4-triazol-1-yl)-7-fluoro-4-isopropylisoquinolin-1(2H)-one]"
–,50,29.2,"CCn1c(CO)nn(-c2cc3c(C(C)C)cn(-c4ccnc(OC)c4C)c(=O)c3cc2F)c1=O [Example 129, 6-(4-Ethyl-3-(hydroxymethyl)-5-oxo-4,5-dihydro-1H-1,2,4-triazol-1-yl)-7-fluoro-4-isopropyl-2-(2-methoxy-3-methylpyridin-4-yl)isoquinolin-1(2H)-one]"
–,> 100,> 10000,"CCn1c(CO)nn(-c2cc3c(C(C)C)cn(-c4nccnc4C)c(=O)c3cc2F)c1=O [Example 97, 6-(4-Ethyl-3-(hydroxymethyl)-5-oxo-4,5-dihydro-1H-1,2,4-triazol-1-yl)-7-fluoro-4-isopropyl-2-(3-methylpyrazin-2-yl)isoquinolin-1(2H)-one]"
–,0.3,0.669,"CCn1c(CO)nn(-c2cc3c(C(C)C)cn(-c4ccccc4C(F)(F)F)c(=O)c3cc2F)c1=O [Example 103, 6-(4-Ethyl-3-(hydroxymethyl)-5-oxo-4,5-dihydro-1H-1,2,4-triazol-1-yl)-7-fluoro-4-isopropyl-2-(2-(trifluoromethyl)phenyl)isoquinolin-1(2H)-one]"
–,1,0.58,"CCn1c(CO)nn(-c2cc3c(C(C)C)cn(-c4cc(C)ccc4C)c(=O)c3cc2F)c1=O [Example 75, 2-(2,5-Dimethylphenyl)-6-(4-ethyl-3-(hydroxymethyl)-5-oxo-4,5-dihydro-1H-1,2,4-triazol-1-yl)-7-fluoro-4-isopropylisoquinolin-1(2H)-one]"
–,6,3.07,"CCn1c(CO)nn(-c2cc3c(C(C)C)cn(-c4nc(C)ccc4Cl)c(=O)c3cc2F)c1=O [Example 108, 2-(3-Chloro-6-methylpyridin-2-yl)-6-(4-ethyl-3-(hydroxymethyl)-5-oxo-4,5-dihydro-1H-1,2,4-triazol-1-yl)-7-fluoro-4-isopropylisoquinolin-1(2H)-one]"
–,2,1.21,"CCc1ccccc1-n1cc(C(C)C)c2cc(-n3nc(CO)n(CC)c3=O)c(F)cc2c1=O [Example 89, 6-(4-Ethyl-3-(hydroxymethyl)-5-oxo-4,5-dihydro-1H-1,2,4-triazol-1-yl)-2-(2-ethylphenyl)-7-fluoro-4-isopropylisoquinolin-1(2H)-one]"
